Measured values published in patent USRE46511E1, “Fused pyrimidine derivatives for inhibition of tyrosine kinase activity” (HANMI SCIENCE CO., LTD., priority 2010, dated 2017).
pIC50: −log10 of the molar value.

Columns and labels:
[1] = Body weight change in nude mice xenografted with NCI-H1975 cancer cells; format: in vivo; conditions: for mBWL (maximum body weight loss): oral, one time a day for 10 days, measured on 10th day after administration
Experimental: (§1) . In the test, a tumor in the sixth generation isolated from an individual was cut into a size of 30 mg, and transplanted subcutaneously into right flanks of mice using a 12-gauge trocar. The volume of tumor (V) is calculated from following equation 1 after measuring a long diameter (L) and a short diameter (S) using a vernier caliper twice a week for 18 days of test. All test materials were orally administered one time a day for total 10 days, and the tumor growth inhibition rate (IR: tumor growth inhibition rate (%) calculated based on a vehicle-treated control) and the maximum body weight loss (mBWL: maximum body weight loss calculated based on the body weight just before administration) were calculated using following equations 2 and 3. V=L×S^2/2 <Equation 1>
wherein, RTG is a relative tumor growth, which is the mean tumor volume on a particular day based on […] mean tumor volume. mBWL(%)=(1−(mean body weight on day x/mean body weight just before administration))×100 <Equation 3>
wherein, day x is a day on which the body weight loss is largest during the test.

[2] = test system: NCI-H1975 cancer cells; assay: Anticancer efficacy test in nude mice xenografted with NCI-H1975 cancer cells; format: in vivo; conditions: oral, one time a day for 10 days, measured on 16th day after administration
Experimental: NCI-H1975 cell (lung cancer cell) was purchased from American Type Culture Collection (ATCC). After formation of tumor by subcutaneous injection with 1×10^8 cells/0.3 mL of tumor cell suspension on the back of mice, passages were carried out and tumor in at least third generation was used in the test.
as §1, with “In” for “. In”
wherein, L is a long diameter and S is a short diameter. IR(%)=(1−(RTG of the treatment group of test material)/(RTG of the control group))×100 <Equation 2>

[3] = test system: NCI-H1975 (EGFR L858R/T790M); assay: Inhibition test for growth of cancer cell expressing EGFR (MTS), NCI-H1975; format: cell-based; conditions: Homo sapiens; NCI-H1975 cells, 48 hours, MTS; read-out: GI50 NCI-H1975 EGFR L858R/T790M
Experimental: (§5) A431 cell line was incubated in a high-glucose DMEM (Dulbecco's Modified Eagle's Medium) supplemented with 10% fetal bovine serum (FBS) and 1% penicillin/streptomycin (Gibco BRL), and HCC827 and NCI-H1975 cell lines were incubated in an RPMI medium supplemented with 10% FBS, 1% penicillin/streptomycin and 1% sodium pyruvate.
(§6) The cancer cell lines stored in a liquid nitrogen tank were each quickly thawed at 37° C., and centrifuged to remove the medium. The resulting cell pellet was mixed with a culture medium, incubated in a culture flask at 37° C. under 5% CO2 for 2 to 3 days, and the medium was removed. The remaining cells were washed with DPBS (Dulbecco's Phosphate Buffered Saline) and separated from the flask by using Tripsin-EDTA. […] 100 μl of the diluted cell solution was added to each well of a 96-well plate, and incubated at 37° C. under 5% CO2 for 1 day.
(§7) In case that the test compound was not soluble in DMSO, 1% HCl was added thereto and treated in a 40° C. water bath for 30 mins until a complete dissolution was attained. The DMSO solution containing test compound was diluted with a culture medium to a final concentration of 100 μM, and then diluted 10 times serially to 10^−6 μM (a final concentration of DMSO was less than 1%).
(§8) The medium was removed from each well of the 96-well plate. And then, 100 μl of a test compound solution was added to each well holding the cultured cells, and the plate was incubated at 37° C. under 5% CO2 for 72 hours (except that NCI-H1975 cells were incubated for 48 hours). After removing the medium from the plate, 50 μA of 10% trichloroacetic acid was added to each well, and the plate was kept at 4° C. for 1 hour to fix the cells to the bottom of the plate. The added 10% trichloroacetic acid solution was removed from each well, the plate was dried, 100 μA of an SRB (Sulforhodamine-B) dye solution at a concentration of 0.4% dissolved in 1% acetic acid was added thereto, and the resulting mixture was reacted for 10 mins at room temperature. After removing the dye solution, the plate was washed with water, and well dried. When the dye solution was not effectively removed by water, 1% acetic acid was used. 150 μA of 10 mM trisma base was added to each well, and the absorbance at 540 nm wavelength was determined with a microplate reader.

[4] = biological target: T1, EGFR WT (Homo sapiens, UniProt P00533); assay: z-lyte kinase assay, EGFR WT; format: biochemical
T1 construct: purchased Invitrogen

[5] = biological target: T2, EGFR L858R/T790M (Homo sapiens, UniProt P00533, L858R/T790M); assay: z-lyte kinase assay, EGFR L858R/T790M; format: biochemical
T2 construct: purchased Invitrogen

[6] = test system: A431 (EGFR WT); assay: Inhibition test for growth of cancer cell expressing EGFR (SRB), A431; format: cell-based; conditions: Homo sapiens, A-431; A431 cells, 72 hours, SRB; read-out: GI50 A431 EGFR WT;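 also: cells in 96-well plates exposed to tenfold serial dilutions from 100 µM down to 10^−6 µM, DMSO under 1%, SRB staining read as absorbance at 540 nm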
Experimental: as §5, §6, §7, §8

[7] = test system: HCC827 (EGFR DelE746_A750); assay: Inhibition test for growth of cancer cell expressing EGFR (SRB), HCC827; format: cell-based; conditions: Homo sapiens, HCC827, 72 h, HCC827 cells, 72 hours, SRB; read-out: GI50 HCC827 EGFR DelE746_A750;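 also: cells in 96-well plates exposed to tenfold serial dilutions from 100 µM, fixed with trichloroacetic acid, SRB-stained, absorbance read at 540 nm, DMSO under 1%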
[8] = biological target: T3, BTK (Homo sapiens, UniProt Q06187); assay: z-lyte kinase assay, BTK; format: biochemical
T3 construct: purchased Invitrogen
Experimental: (§2) The inhibiting activities of the inventive compounds obtained in Examples 1 to 237 against EGFR WT and EGFR L858R/T790M kinase were determined using z-lyte kinase assay kit (Invitrogen, PV3191). The kinases used in the test were purchased from Invitrogen.
(§3) The compounds obtained in Examples 1 to 237 were each prepared to 10 mM DMSO solution, and a solution containing 4% DMSO were prepared therefrom and diluted to a concentration of 1 μM to 0.0001 μM. […] The test was conducted in a 384 well polystyrene flat-bottomed plates. 5 μl of the diluted solution of each compound was added to each well, and 10 μl of a mixture of peptide substrate and kinase in a suitable concentration and 5 μl of 5˜300 μM ATP solution were successively added thereto and the plate was incubated in a stirrer at room temperature for 60 minutes. After 60 mins, 10 μl of coloring reagent was added to the resulting mixture to initiate a fluorescence reaction of peptide substrate and a terminating solution was added thereto for terminating the reaction. A fluorescence value of each well was determined with a fluorescence meter (Molecular Device) at 400 nm (excitation filter) and 520 nm (emission filter). […] The calculation of IC50 and the result analysis were carried out by using Microsoft Excel.
(§4) The inhibiting activities of the inventive compounds obtained in Examples 1 to 237 against BTK and JAK3 kinases were determined, respectively. The procedure of Test Example 2 was repeated except that BTK and JAK3 kinases (Invitrogen) were employed instead of using the EGFR kinase.

[9] = biological target: T4, JAK3 (Homo sapiens, UniProt P52333); assay: z-lyte kinase assay, JAK3; format: biochemical
T4 construct: purchased Invitrogen
T4 sequence (P52333 1-1124): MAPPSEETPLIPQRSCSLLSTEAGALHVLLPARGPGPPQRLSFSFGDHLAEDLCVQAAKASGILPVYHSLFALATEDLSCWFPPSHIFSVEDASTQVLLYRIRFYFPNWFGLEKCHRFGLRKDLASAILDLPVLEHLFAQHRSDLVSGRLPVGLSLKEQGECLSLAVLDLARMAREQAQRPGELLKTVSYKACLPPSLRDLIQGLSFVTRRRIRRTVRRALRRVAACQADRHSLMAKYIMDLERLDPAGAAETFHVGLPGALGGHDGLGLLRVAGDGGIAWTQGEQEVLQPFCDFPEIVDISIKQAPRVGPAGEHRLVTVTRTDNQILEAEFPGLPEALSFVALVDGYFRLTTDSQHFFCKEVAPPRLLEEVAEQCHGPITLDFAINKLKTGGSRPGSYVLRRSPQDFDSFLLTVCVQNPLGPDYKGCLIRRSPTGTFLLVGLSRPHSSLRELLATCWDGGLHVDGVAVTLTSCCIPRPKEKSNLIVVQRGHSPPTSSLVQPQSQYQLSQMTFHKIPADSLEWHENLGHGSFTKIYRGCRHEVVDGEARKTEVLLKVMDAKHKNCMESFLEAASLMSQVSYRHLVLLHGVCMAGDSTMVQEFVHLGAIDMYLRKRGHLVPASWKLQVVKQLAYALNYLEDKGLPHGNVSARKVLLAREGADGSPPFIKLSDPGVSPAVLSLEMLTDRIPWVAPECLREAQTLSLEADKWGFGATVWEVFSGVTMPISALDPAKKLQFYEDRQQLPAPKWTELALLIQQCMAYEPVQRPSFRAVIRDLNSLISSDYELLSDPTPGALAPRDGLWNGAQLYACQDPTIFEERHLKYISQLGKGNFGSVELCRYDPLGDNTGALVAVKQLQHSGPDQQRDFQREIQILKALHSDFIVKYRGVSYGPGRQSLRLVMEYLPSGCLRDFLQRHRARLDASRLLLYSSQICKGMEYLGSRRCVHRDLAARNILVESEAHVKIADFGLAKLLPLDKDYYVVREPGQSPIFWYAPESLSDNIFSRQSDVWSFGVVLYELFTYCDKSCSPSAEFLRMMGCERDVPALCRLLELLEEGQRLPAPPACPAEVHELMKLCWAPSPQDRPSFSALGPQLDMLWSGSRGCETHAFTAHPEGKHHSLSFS
Experimental: as §2, §3, §4

T3 sequence (Q06187 whole entry): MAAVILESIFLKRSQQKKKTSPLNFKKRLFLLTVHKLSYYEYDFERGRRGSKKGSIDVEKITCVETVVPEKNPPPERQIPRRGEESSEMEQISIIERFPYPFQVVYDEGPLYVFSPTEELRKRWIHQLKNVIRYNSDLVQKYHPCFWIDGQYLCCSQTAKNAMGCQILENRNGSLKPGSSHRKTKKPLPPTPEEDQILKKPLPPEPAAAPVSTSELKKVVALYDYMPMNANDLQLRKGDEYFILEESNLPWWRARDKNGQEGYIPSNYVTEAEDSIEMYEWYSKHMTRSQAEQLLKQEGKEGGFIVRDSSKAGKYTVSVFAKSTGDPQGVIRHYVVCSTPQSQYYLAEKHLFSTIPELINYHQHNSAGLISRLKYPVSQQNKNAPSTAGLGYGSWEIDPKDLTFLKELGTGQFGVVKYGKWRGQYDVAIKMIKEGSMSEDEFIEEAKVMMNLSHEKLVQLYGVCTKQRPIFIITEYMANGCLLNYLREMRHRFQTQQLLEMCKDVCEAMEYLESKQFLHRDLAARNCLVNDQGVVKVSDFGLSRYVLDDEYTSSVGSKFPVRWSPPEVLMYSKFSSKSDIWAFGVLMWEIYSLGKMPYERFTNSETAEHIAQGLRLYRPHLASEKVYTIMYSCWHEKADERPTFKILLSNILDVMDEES
T2 sequence (P00533 25-1210 T790M/L858R): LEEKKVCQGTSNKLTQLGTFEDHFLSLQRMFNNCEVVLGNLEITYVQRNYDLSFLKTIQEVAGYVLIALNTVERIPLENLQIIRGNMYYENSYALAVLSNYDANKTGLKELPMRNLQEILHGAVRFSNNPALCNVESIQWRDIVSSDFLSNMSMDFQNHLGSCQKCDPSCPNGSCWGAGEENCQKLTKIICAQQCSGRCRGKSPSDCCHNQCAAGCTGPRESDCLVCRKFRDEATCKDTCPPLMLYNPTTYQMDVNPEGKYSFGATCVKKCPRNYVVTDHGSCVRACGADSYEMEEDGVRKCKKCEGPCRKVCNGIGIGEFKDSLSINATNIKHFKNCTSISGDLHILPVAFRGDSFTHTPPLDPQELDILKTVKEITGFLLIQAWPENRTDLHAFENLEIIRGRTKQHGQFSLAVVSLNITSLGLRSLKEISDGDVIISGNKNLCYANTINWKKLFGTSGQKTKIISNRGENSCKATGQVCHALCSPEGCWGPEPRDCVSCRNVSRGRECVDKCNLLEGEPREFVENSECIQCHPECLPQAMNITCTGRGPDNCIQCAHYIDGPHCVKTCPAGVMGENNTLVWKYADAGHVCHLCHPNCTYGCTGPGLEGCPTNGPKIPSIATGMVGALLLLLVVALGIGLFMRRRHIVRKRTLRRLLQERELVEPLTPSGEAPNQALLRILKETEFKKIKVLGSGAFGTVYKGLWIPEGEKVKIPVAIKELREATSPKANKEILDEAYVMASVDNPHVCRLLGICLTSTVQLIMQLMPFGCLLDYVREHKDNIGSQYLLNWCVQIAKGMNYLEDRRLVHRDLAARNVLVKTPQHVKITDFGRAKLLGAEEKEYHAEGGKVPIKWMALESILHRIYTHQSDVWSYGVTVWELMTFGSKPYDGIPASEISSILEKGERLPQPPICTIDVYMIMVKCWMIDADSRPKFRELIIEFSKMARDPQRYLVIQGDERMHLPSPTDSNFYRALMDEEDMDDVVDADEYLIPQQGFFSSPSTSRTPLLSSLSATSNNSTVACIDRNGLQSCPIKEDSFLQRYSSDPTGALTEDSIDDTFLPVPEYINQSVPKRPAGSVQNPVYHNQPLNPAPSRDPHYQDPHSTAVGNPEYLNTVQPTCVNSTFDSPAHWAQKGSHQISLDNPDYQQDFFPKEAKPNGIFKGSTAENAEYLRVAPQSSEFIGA
T1 sequence (P00533 25-1210): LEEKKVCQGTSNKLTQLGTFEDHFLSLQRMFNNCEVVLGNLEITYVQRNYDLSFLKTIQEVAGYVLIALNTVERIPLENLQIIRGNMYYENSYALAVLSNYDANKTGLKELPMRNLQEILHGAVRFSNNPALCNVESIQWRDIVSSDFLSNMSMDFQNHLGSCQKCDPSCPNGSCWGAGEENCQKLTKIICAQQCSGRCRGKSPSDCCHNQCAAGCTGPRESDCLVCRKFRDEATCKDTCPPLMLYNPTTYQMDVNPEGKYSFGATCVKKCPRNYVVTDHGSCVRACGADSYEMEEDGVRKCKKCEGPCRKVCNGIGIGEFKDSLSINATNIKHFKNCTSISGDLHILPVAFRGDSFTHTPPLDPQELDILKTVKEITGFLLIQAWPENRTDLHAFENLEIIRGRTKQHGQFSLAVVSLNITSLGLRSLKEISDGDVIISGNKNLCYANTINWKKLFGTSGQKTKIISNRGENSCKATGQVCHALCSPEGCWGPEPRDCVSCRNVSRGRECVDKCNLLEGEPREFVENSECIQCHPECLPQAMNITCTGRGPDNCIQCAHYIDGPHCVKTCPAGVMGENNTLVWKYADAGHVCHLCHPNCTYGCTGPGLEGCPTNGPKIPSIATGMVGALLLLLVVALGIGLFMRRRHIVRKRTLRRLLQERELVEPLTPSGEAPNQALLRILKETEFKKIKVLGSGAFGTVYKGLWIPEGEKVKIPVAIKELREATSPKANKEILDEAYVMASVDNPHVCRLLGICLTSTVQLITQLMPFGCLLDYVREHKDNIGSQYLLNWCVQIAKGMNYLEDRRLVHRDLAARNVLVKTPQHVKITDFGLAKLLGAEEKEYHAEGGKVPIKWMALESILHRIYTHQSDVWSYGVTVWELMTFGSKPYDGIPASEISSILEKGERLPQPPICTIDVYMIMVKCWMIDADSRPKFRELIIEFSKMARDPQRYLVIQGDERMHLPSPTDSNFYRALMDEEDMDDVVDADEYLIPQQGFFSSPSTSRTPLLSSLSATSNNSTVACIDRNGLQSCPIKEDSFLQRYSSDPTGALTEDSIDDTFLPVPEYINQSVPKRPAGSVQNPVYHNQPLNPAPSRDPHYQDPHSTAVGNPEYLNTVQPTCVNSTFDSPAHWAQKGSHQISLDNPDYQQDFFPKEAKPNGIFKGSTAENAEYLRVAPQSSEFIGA

| SMILES | GI50 [3] [nM] | pIC50 [4] | pIC50 [5] | GI50 [6] [nM] | GI50 [7] [nM] | pIC50 [8] | pIC50 [9] | mBWL (maximum body weight loss) ([1]; 50 mg/kg) [%] | IR (tumor growth inhibition rate) ([2]; 50 mg/kg) [%] | mBWL (maximum body weight loss) ([1]; 70 mg/kg) [%] | weight gain ([1]; in therapeutically equivalent dose (70 mg/kg), NCI-H1975 xenografted nude mice) [%] | IR (tumor growth inhibition rate) ([2]; 70 mg/kg) [%] |
| --- | --- | --- | --- | --- | --- | --- | --- | --- | --- | --- | --- | --- |
| CN(C)C/C=C/C(=O)Nc1cc2c(Nc3ccc(F)c(Cl)c3)ncnc2cc1O[C@H]1CCOC1 [BIBW2992, Afatinib, reference compound] |  |  |  |  |  |  |  | 9.1 | 77 |  |  |  |
| C=CC(=O)Nc1cccc(Oc2nc(Nc3ccc(N4CCN(C)CC4)cc3OC)nc3ccsc23)c1 [Example 2] | 50 to 100 | < 6.00 | > 7.30 | > 1000 | 50 to 100 |  |  |  |  | −7.6 | 7.6 | 75 |
| C=CC(=O)Nc1cccc(Oc2nc(Nc3ccc(N4CCN(C)CC4)cc3)nc3ccoc23)c1 [Example 228, N-(3-((2-((4-(4-methylpiperazin-1-yl)phenyl)amino)furo[3,2-d]pyrimidin-4-yl)oxy)phenyl)acrylamide] | < 50 |  |  | 100 to 1000 | < 50 | ≥ 7.30 | ≥ 7.30 |  |  |  |  |  |
| C=CC(=O)Nc1cccc(Oc2nc(Nc3ccc(N4CCN(C(C)C)CC4)cc3)nc3ccoc23)c1 [Example 229] | < 50 |  |  | 100 to 1000 | < 50 | ≥ 7.30 | ≥ 7.30 |  |  |  |  |  |
| C=CC(=O)Nc1cccc(Oc2nc(Nc3ccc(NC4CCN(C)CC4)c(F)c3)nc3ccoc23)c1 [Example 237] | < 50 |  |  | > 1000 | < 50 | ≥ 7.30 | ≥ 7.30 |  |  |  |  |  |

Now from value to molecule, other results behind:

| GI50 [3] [nM] | pIC50 [4] | pIC50 [5] | GI50 [6] [nM] | GI50 [7] [nM] | pIC50 [8] | pIC50 [9] | SMILES | mBWL (maximum body weight loss) ([1]; 50 mg/kg) [%] | IR (tumor growth inhibition rate) ([2]; 50 mg/kg) [%] | mBWL (maximum body weight loss) ([1]; 70 mg/kg) [%] | weight gain ([1]; in therapeutically equivalent dose (70 mg/kg), NCI-H1975 xenografted nude mice) [%] | IR (tumor growth inhibition rate) ([2]; 70 mg/kg) [%] |
| --- | --- | --- | --- | --- | --- | --- | --- | --- | --- | --- | --- | --- |
| < 50 | 6.00 to 7.00 | > 7.30 | > 1000 | < 50 | ≥ 7.30 | ≥ 7.30 | C=CC(=O)Nc1cccc(Oc2nc(Nc3ccc(N4CCC(N5CCCCC5)CC4)cc3)nc3ccsc23)c1 [Example 48] |  |  |  |  |  |
| < 50 | < 6.00 | > 7.30 |  | < 50 |  |  | C=CC(=O)Nc1cccc(Oc2nc(Nc3ccc(C4CCCN(C)C4)cc3OC)nc3ccsc23)c1 (centres unmarked) [Example 115] |  |  |  |  |  |
| < 50 | < 6.00 | > 7.30 | > 1000 | < 50 |  |  | C=CC(=O)Nc1cccc(Oc2nc(Nc3ccc(N4CCOCC4)c(F)c3)nc3ccsc23)c1 [Example 122] |  |  |  |  |  |
| < 50 | 6.00 to 7.00 | > 7.30 | > 1000 | < 50 |  |  | C=CC(=O)Nc1cccc(Nc2nc(Nc3ccc(N4CCN(C)CC4)cc3)nc3ccsc23)c1 [Example 206, N-(3-(2-(4-(4-methylpiperazin-1-yl)phenylamino)thieno[3,2-d]pyrimidin-4-ylamino)phenyl)acrylamide] |  |  |  |  |  |
| < 50 | < 6.00 | > 7.30 |  | < 50 |  |  | C=CC(=O)Nc1cccc(Nc2nc(Nc3ccc(N4CCN(C)CC4)c(F)c3)nc3ccsc23)c1 [Example 215] |  |  |  |  |  |
